# Results published in the Bradley open melting point set (2014).
# Several values for one entry are separate records, joined by “and”; a condition that tells them apart may be missing. Equal entries are not always repeated.
row,SMILES,melting point
1,"CC(C)CC(C)(C)C [2,2,4-trimethylpentane]",-107 °C
2,"CC1(C)CCCC(C)(C)N1 [2,2,6,6-tetramethylpiperidine]",-59 °C
3,"COC(F)(F)C(Cl)Cl [2,2-Dichloro-1,1-difluoroethyl methyl ether]",-35 °C
4,"CCC(C)(C)C [2,2-Dimethylbutane]",-100 °C
5,"OCCN(CCO)C(CO)(CO)CO [2,2-bis(hydroxymethyl)-2,2',2''-nitrilotriethanol]",104 °C
6,"OCC(F)F [2,2-difluoroethanol]",-28 °C
7,"CCC(O)C(C)(C)C (stereo not given) [2,2-dimethyl-3-pentanol] [listing 1 of 2 here]",5 °C
8,"CCC(O)C(C)(C)C (stereo not given) [2,2-dimethyl-3-pentanol] [listing 2 of 2 here]",-5 °C
9,"CCC(C)(C)C [2,2-dimethylbutane]",-100 °C
10,"CC(C)(C)C(=O)O [2,2-dimethylpropanoic_acid]",36 °C
11,"OCc1c(F)c(F)c(F)c(F)c1F [2,3,4,5,6-Pentafluorobenzyl Alcohol]",37.5 °C
12,"CC(=O)OCC(OC(C)=O)C(OC(C)=O)C(OC(C)=O)C(OC(C)=O)C(=O)O (stereo not given) [2,3,4,5,6-penta(acetyloxy)hexanoic acid]",110 °C
13,"NC(=O)c1c(F)c(F)c(F)c(F)c1F [2,3,4,5,6-pentafluorobenzamide]",148 °C
14,"Cc1c(C)c(C)c(CCl)c(C)c1C [2,3,4,5,6-pentamethylbenzyl chloride]",83 °C
15,"Cc1c(C)c(C)c2c(c1C)CC2=O [2,3,4,5-Tetramethylbicyclo(4.2.0)octa-1,3,5-trien-7-one]",161 °C
16,"O=C1C(c2ccccc2)=C(c2ccccc2)C(c2ccccc2)=C1c1ccccc1 [2,3,4,5-Tetraphenylcyclopenta-2,4-dien-1-one]",218 °C
17,"OB(O)c1cc(F)c(F)c(F)c1F [2,3,4,5-tetrafluorobenzeneboronic acid]",253 °C
18,"O=C(O)c1cc(F)c(F)c(F)c1F [2,3,4,5-tetrafluorobenzoic acid]",86 °C
19,"Cc1[nH]c(C)c(C)c1C [2,3,4,5-tetramethylpyrrole]",105 °C
20,"OB(O)c1c(F)cc(F)c(F)c1F [2,3,4,6-tetrafluorobenzeneboronic acid]",127 °C
21,"O=[N+]([O-])c1ccc(Cl)c(Cl)c1Cl [2,3,4-trichloronitrobenzene]",56 °C and 55.5 °C

row,SMILES,melting point
1,"Cc1cc(C)c(C)c(CCl)c1C [2,3,5,6-tetramethylbenzyl chloride]",70 °C
2,"O=C(O)c1c(F)cnc(F)c1F [2,3,5-trifluoropyridine-4-carboxylic acid]",110 °C
3,"c1ccc2cc3cc4ccccc4cc3cc2c1 [2,3-Benzanthracene, Naphthacene]",341 °C
4,"Nc1cccnc1N [2,3-diaminopyridine]",112 °C
5,"CC(Br)C(C)(C)Br (stereo not given) [2,3-dibromo-2-methylbutane]",15 °C
6,"CC(Br)C(Br)C(=O)O (stereo not given) [2,3-dibromobutyric acid]",86 °C
7,"C=C(Cl)CCl [2,3-dichloro-1-propene]",-83 °C
8,"C=C(C)C(=C)C [2,3-dimethyl-1,3-butadiene]",-76 °C
9,"C=C(C)C(C)C [2,3-dimethyl-1-butene]",-157 °C
10,"C/C(C)=C(/C)C [2,3-dimethyl-2-butene]",-74 °C
11,"Cc1c([N+](=O)[O-])cc[n+]([O-])c1C [2,3-dimethyl-4-nitropyridine n-oxide]",93 °C
12,"Cc1cccc(N)c1C [2,3-dimethylaniline] [listing 1 of 2 here]",2 °C
13,"Cc1cccc(N)c1C [2,3-dimethylaniline] [listing 2 of 2 here]",3 °C
14,"C[SiH]1O[SiH](C)O[SiH](C)O[SiH](C)O1 (stereo not given) [2,4,6,8-tetramethylcyclotetrasiloxane]",-69 °C
15,"Cc1cc(C)nc(C)c1 [2,4,6-collidine]",-43 °C
16,"Oc1c(Br)cc(Br)cc1Br [2,4,6-tribromophenol]",89 °C
17,"CCC(C)(C)c1ccc(OCC(=O)O)c(C(C)(C)CC)c1 [2,4-di(tert-pentyl)phenoxyacetic acid]",126 °C
18,"OB(O)c1cnc(OCc2ccccc2)nc1OCc1ccccc1 [2,4-dibenzyloxypyrimidine-5-boronic acid]",90 °C
19,"Cc1cc(C)c(Br)c(C)c1Br [2,4-dibromomesitylene]",60 °C
20,"Oc1ccc(Br)cc1Br [2,4-dibromophenol]",40 °C
21,"Cc1c[nH]c(C)n1 [2,4-dimethylimidazole]",86 °C

row,SMILES,melting point
1,"CC(C)CC(C)C [2,4-dimethylpentane]",-119 °C
2,"Nc1ccc([N+](=O)[O-])cc1[N+](=O)[O-] [2,4-dinitroaniline]",177 °C
3,"O=[N+]([O-])c1ccc(O)c([N+](=O)[O-])c1 [2,4-dinitrophenol]",107 °C
4,"Cc1ccnc(C)c1 [2,4-lutidine]",-60 °C
5,"Cc1cc(CCl)c(C)cc1CCl [2,5-Di(Chloromethyl)-p-xylene]",132 °C
6,"CC(C)(C)c1ccc2oc(-c3ccc(-c4nc5cc(C(C)(C)C)ccc5o4)s3)nc2c1 [2,5-bis(5-tert-butyl-2-benzoxazolyl)thiophene]",201 °C
7,"Cc1cc(CCl)c(C)cc1CCl [2,5-bis(chloromethyl)-p-xylene]",132 °C
8,"O=[N+]([O-])c1c(Br)sc(Br)c1[N+](=O)[O-] [2,5-dibromo-3,4-dinitrothiophene]",136 °C
9,"Nc1cc(Cl)ccc1Cl [2,5-dichloroaniline] [listing 1 of 2 here]",50 °C
10,"Nc1cc(Cl)ccc1Cl [2,5-dichloroaniline] [listing 2 of 2 here]",50 °C
11,"O=[N+]([O-])c1cc(Cl)ccc1Cl [2,5-dichloronitrobenzene]",56 °C
12,"CC1=CC(=O)CC(C)(C)C1=O [2,6,6-trimethyl-2-cyclohexene-1,4-dione]",20 °C
13,"CC1CNCC(C)O1 (stereo not given) [2,6-Dimethylmorpholine]",-85 °C
14,"Cc1cc(C(C)(C)C)c(O)c(C(C)(C)C)c1 [2,6-di-tert-butyl-4-methylphenol]",71 °C
15,"Cc1c(N)cccc1N [2,6-diaminotoluene]",97 °C
16,"CCCc1cc(Br)c(N)c(Br)c1 [2,6-dibromo-4-n-propylaniline]",56 °C
17,"Nc1c(Br)cc([N+](=O)[O-])cc1Br [2,6-dibromo-4-nitroaniline]",207 °C
18,"O=[N+]([O-])/C=C/c1c(Cl)cccc1Cl [2,6-dichloro-beta-nitrostyrene]",65 °C
19,"Nc1c(Cl)cccc1Cl [2,6-dichloroaniline]",39 °C

# Next, values leading:
row,melting point,SMILES
1,70 °C,"S=C=Nc1ccc(Cl)c(Cl)c1Cl [2,3,4-trichlorophenyl isothiocyanate]"
2,32 °C,"COc1cccc(Cl)c1Cl [2,3-dichloroanisole]"
3,67 °C,"Clc1cccnc1Cl [2,3-dichloropyridine]"
4,6 °C,"Cc1cccc(Cl)c1Cl [2,3-dichlorotoluene]"
5,123 °C,"O=Cc1c(-c2ccccc2)nc2n1CCS2 [2,3-dihydro-6-phenylimidazo[2,1-b]thiazole-5-carboxaldehyde]"
6,-21 °C,"c1ccc2c(c1)CCO2 [2,3-dihydrobenzo[b]furan]"
7,120 °C,"O=c1c(-c2ccccc2)c1-c1ccccc1 [2,3-diphenyl-2-cyclopropen-1-one]"
8,100 °C,"OB(O)c1cc(F)c(F)cc1F [2,4,5-trifluorobenzeneboronic acid]"
9,180 °C,"NS(=O)(=O)c1c(Cl)cc(Cl)cc1Cl [2,4,6-trichlorobenzenesulfonamide]"
10,163 °C,"O=C(O)c1c(Cl)cc(Cl)cc1Cl [2,4,6-trichlorobenzoic acid]"
11,23 °C,"Clc1cc(Cl)nc(Cl)n1 [2,4,6-trichloropyrimidine]"
12,62 °C,"Cc1cc(C)c(N=C=S)c(C)c1 [2,4,6-trimethylphenyl isothiocyanate]"
13,130 °C,"Nc1c(Br)cc(Br)cc1[N+](=O)[O-] [2,4-dibromo-6-nitroaniline]"
14,31 °C,"O=[N+]([O-])c1ccc(Cl)cc1Cl [2,4-dichloro-1-nitrobenzene]"
15,34 °C,"CC(=O)c1ccc(Cl)cc1Cl [2,4-dichloroacetophenone]"
16,159 °C,"O=C(O)c1ccc(Cl)cc1Cl [2,4-dichlorobenzoic_acid]"
17,18 °C,"O=C(Cl)c1ccc(Cl)cc1Cl [2,4-dichlorobenzoyl chloride]"

row,melting point,SMILES
1,59 °C,"O=C=Nc1ccc(Cl)cc1Cl [2,4-dichlorophenyl isocyanate]"
2,-13 °C,"Cc1ccc(Cl)cc1Cl [2,4-dichlorotoluene]"
3,72 °C,"COc1ccc(C=O)c(OC)c1 [2,4-dimethoxybenzaldehyde]"
4,54 °C,"Nc1cc(Br)ccc1Br [2,5-dibromoaniline]"
5,213 °C,"OB(O)c1cc(Cl)ccc1Cl [2,5-dichlorobenzeneboronic acid]"
6,295 °C,"O=C(O)c1cc(Cl)c(C(=O)O)cc1Cl [2,5-dichloroterephthalic acid]"
7,20 °C,"COc1ccc(OC)c(C(C)=O)c1 [2,5-dimethoxyacetophenone]"
8,93 °C,"COc1ccc(OC)c(B(O)O)c1 [2,5-dimethoxybenzeneboronic acid]"
9,134 °C,"Cc1ccc(C)c(C(=O)O)c1 [2,5-dimethylbenzoic acid]"
10,76 °C,"Cc1ccc(C)c(O)c1 [2,5-dimethylphenol]"
11,67 °C,"O=C1C(Cl)=CC(=NCl)C=C1Cl [2,6-Dichloro-4-(chloroimino)cyclohexa-2,5-dien-1-one]"
12,144 °C,"O=C(O)c1c(Cl)cccc1Cl [2,6-Dichlorobenzoic acid]"
13,49 °C,"Cc1cccc(C)c1O [2,6-Dimethylphenol]"
14,-6 °C,"Cc1cccc(C)n1 [2,6-Dimethylpyridine]"
15,116 °C,"N#Cc1c(OCC(F)(F)F)cccc1OCC(F)(F)F [2,6-bis(2,2,2-trifluoroethoxy)benzonitrile]"
16,67 °C,"CC(C)(C)C1=CC(=O)C=C(C(C)(C)C)C1=O [2,6-di-tert-butyl-p-benzoquinone]"
17,122 °C,"Nc1cccc(N)n1 [2,6-diaminopyridine]"
